Source: a melting point compilation (Tetko et al.)

SMILES	melting point [°C]
Fc1cc(F)c(Br)c(Br)c1	37
C=C1C(=CC=C2CCCC3(C)C2CCC3C(C)CCCC(C)C)CC(O)CC1O (stereo not drawn)	136
CCN(CC)CCOc1ccc(C(O)(Cc2ccc(Cl)cc2)c2ccc(C)cc2)cc1 (stereo not drawn)	103
C/C(=N\CCO)c1c(O)c2ccccc2n(-c2ccccc2)c1=O	201 to 202
COc1ccccc1N1CCN(CCCC(=O)c2ccc(F)cc2)CC1	67.5
BrCc1ccc(-n2cccc2)cc1	86 to 91
FC(F)(F)c1cc(Cl)c2cc(Br)ccc2n1	98 to 100
Cc1cc(Br)cc(C)c1N=C=S	79.5
COc1ccc2cc(CCC(C)=O)ccc2c1	80
COC1C=CC23c4cc5c(cc4COC2(O)CN(C)C3C1)OCO5 (stereo not drawn)	210
CCOc1cc(NC(C)=O)ccc1C(=O)OC	148
CC1=NN(c2ccccc2)C(=O)C1C(Br)C1(Br)C(=O)N(c2ccccc2)N=C1C (stereo not drawn)	307 to 308
CN(N)c1cnn(C)c(=O)c1Cl	131 to 133
O=C1c2ccccc2-c2ccc3c4c(ccc1c24)-c1ccccc1C3=O	385
O=C(Nc1cccc(Cl)c1)OCC#CCCl	75
COc1cccc2c(=O)c3c(n(C)c12)OC(C(C)C)C3 (stereo not drawn)	119
c1ccc(-c2cccs2)nc1	63
CC1CC(=O)Nc2ccccc2N1 (stereo not drawn)	180 to 183
CCOC(=O)c1cc2cc(OC(F)(F)F)ccc2[nH]1	144 to 145
O=[N+]([O-])C(CO)(CO)CO	214
CCOC(=O)NC(C)(C)Cc1ccc(Cl)cc1	52.8
COc1cc(OC)c(C#N)c(OC)c1	142 to 145
O=[N+]([O-])c1ccc(N/N=C2\C=C(c3ccccc3)c3ccccc32)cc1	265 to 266
CC(=O)c1cc(C)c(C)cc1O	69 to 73
O=C(Nc1ccc(Cl)cc1)Nc1ccc(Cl)cc1	270
COc1ccc(F)cc1CBr	60

SMILES	melting point [°C]
Cc1cnc(Cl)c(N)c1	82 to 87
CSc1nc(N)c(C(=O)c2ccc([N+](=O)[O-])cc2)s1	200 to 202
Cn1nc(CCl)cc1-c1cccs1	41 to 42
CCC(C)C1(CC)C(=O)NC(=O)NC1=O (stereo not drawn)	167
C1CCCCCC1	-8
CCOC(=O)c1c(Nc2ccc(OC)cc2)sc2c(-c3ccccc3)c3c(N)n[nH]c3nc12	248 to 252
CC(=O)OC1COC(C#N)C(OC(C)=O)C1OC(C)=O (stereo not drawn)	132 to 135
C=CCOC1=NS(=O)(=O)c2ccccc21	138
O=S1(=O)OC2(c3ccccc31)c1ccc(O)c(O)c1Oc1c2ccc(O)c1O	300
O=C(Nc1c(Cl)cc(Cl)cc1Cl)C(C(F)(F)F)C(F)(F)F	218 to 220
CCC1C(=O)OCC1Cc1cncn1C (stereo not drawn)	34
O=C(CNc1ccccc1)c1ccc(C(=O)CNc2ccccc2)cc1	> 200
CCCCCCOCCOCCO	-40
CCCCCCCCCC1(C)N=C(c2ccccc2)C=[N+]1[O-] (stereo not drawn)	43 to 46
ClCc1cccc2ccccc12	32
COc1c(O)ccc2c1C(=O)N1CCc3cc4c(cc3[C@@H]1C2)OCO4	209
CC(=O)C1(O)CCC2C3CC(C)C4=CC(=O)C=CC4(C)C3(F)C(O)CC21C (stereo not drawn)	297
COc1ccc2nc(-c3ccccc3)cc(Cl)c2c1	121 to 124
O=S(=O)(Cl)c1ccc(F)cc1Cl	30
Oc1c(F)cc(F)cc1F	49.5
Nc1ccc(S(=O)(=O)NC(=O)c2ccccc2)cc1	182
O=C1CN=C(c2ccccc2)c2cc([N+](=O)[O-])ccc2N1	225
CC(C)n1cc(C#N)c(=O)n(Cc2ccccc2)c1=O	151 to 154
O=Cc1ccc(C(F)(F)F)nc1	53 to 55
N#Cc1ccccc1-n1ccnc1	148 to 151
COCC(=NOCC(=O)OC)c1cc(Oc2ccc(C(F)(F)F)cc2Cl)ccc1[N+](=O)[O-]	58

SMILES	melting point [°C]
Cc1ccccc1NN=C1C(=O)CC(C)(C)CC1=O	109
N#CC12CCN(CC1)CC2	133
CCOC(=O)c1ccc(CBr)cc1	30.5
CC1=CC(c2ccccc2)c2ccccc21 (stereo not drawn)	61
CC12CCC(C(O)=CC1=O)C2(C)C (stereo not drawn)	221
O=Cc1ccc(-c2ccc(C(=O)O)cc2)cc1	150
Clc1ccc(Nc2ncnc3c2cnn3-c2ccccc2)cc1	218 to 220
CCCCCCCCC(=O)OCCCCCCC	-15.5
N#CCCn1c(=O)oc2ccccc21	118 to 120
FC(F)(F)c1ccc(N2CCOCC2)c(Br)c1	50 to 52
CCOC(=O)c1cnn(C)c1S(=O)(=O)NC(=O)Nc1nc(OC)cc(OC)n1	182
FC(F)(F)C(Cl)(Cl)C(F)(F)Cl	-4.3
O=C(CO)[C@@H](O)[C@@H](O)[C@H](O)[C@H](O)CO	151
CC1CCc2ccccc2C1 (stereo not drawn)	-43.1
COC(=O)C1(S(=O)(=O)c2ccccc2)CCC1	108
CNC(=O)c1cccnc1	104
COc1ccc(C(=O)CC(=O)C(F)(F)F)cc1	57 to 58
Cc1cc(Br)cc(C)c1N	50
O=C(NC(CO)C(O)c1ccc([N+](=O)[O-])cc1)C(Cl)Cl (stereo not drawn)	150
N#CCc1nc2ccccc2s1	102
Cc1ccc(C(=O)C2=NOC3C(=O)N(c4ccc(C(=O)O)cc4)C(=O)C23)cc1 (stereo not drawn)	201
NNC(=O)c1cc2ccccc2cc1O	206 to 208
CN(C)CCN1C(=O)c2ccccc2Nc2cc(Cl)ccc21	166
CNS(=O)(=O)O	189 to 193
CS(=O)(=O)c1ccc(S(=O)(=O)Cl)cc1	160
C=C1C(C)C2C(Cc3ccccc3)NC(=O)C23OC(=O)C=CC(=O)CCCC(C)CC=CC3C1O (stereo not drawn)	193 to 195

SMILES	melting point [°C]
COC(=O)c1cc(C)[nH]n1	82
NNc1nncc2ccccc12	172
CCC(O)c1ccc(-c2ccccc2F)cc1 (stereo not drawn)	55 to 56
O=C(O)CCc1cc(I)c(Oc2ccc(O)c(I)c2)c(I)c1	200
c1ccc2c(P(c3cccc4ccccc34)c3cccc4ccccc34)cccc2c1	265 to 268
Cc1ccc(N=Nc2ccc(N(C)C)cc2)cc1	165 to 167
OCCNC(CO)(CO)CO	89
COC(=O)c1ccc(Cl)cc1N	67
O=C(O)c1cc2cc(Br)ccc2s1	233 to 234
CCCc1c(C)nc(NC(=O)NS(=O)(=O)c2cccs2)nc1O	210 to 212
O=C=Nc1ccc(-n2cccc2)cc1	65 to 66
ON=C1CCCSC1	103 to 104
Cc1ccc(Br)c(C)c1[N+](=O)[O-]	70
O=C(O)c1cnc2n(c1=O)CCS2	237 to 238
CCC(=O)OC(Cc1ccccc1)(c1ccccc1)C(C)CN(C)C (stereo not drawn)	75
OCc1ccc(-c2cccs2)nc1	124 to 125
O=C=Nc1ccc(-c2ncccn2)cc1	85.5 to 87.5
O/N=C(/C=Cc1ccccc1)c1ccccc1	115 to 116
CC(O)C(C)C(N)C(=O)O (stereo not drawn)	200
O=C=Nc1cccc(-c2ncccn2)c1	45 to 47
COC(=O)C1(C(=O)OC)C=C(OC)c2ccccc21	114 to 115
O=C(O)C1OC(OCC(Cl)(Cl)Cl)C(O)C(O)C1O (stereo not drawn)	142
O=C(O)CC(O)(C(F)(F)F)C(F)(F)F	87
CC(=O)O[Si](OC(C)=O)(OC(C)=O)OC(C)=O	110
Clc1cc(Br)ccc1Br	40
C=C=Cn1cnc2c(N)ncnc21	186

SMILES	melting point [°C]
Cc1oncc1I	27 to 28
O=C(O)C(=O)Nc1ccccc1	150
CN1CCCC1c1cccnc1 (stereo not drawn)	-79
O=C1CCOc2ccc(Cl)cc21	102
CN(C)CCc1c[nH]c2cccc(OP(=O)(O)O)c12	224
Nc1c([N+](=O)[O-])cc(F)c(F)c1F	46 to 48
Nc1nnc(S)s1	243 to 244
NCC1CCCC(CN)C1 (stereo not drawn)	-70
Cc1cccnc1NC(=O)C(F)(F)C(F)(F)C(F)(F)C(F)(F)C(F)(F)C(F)(F)C(F)(F)C(F)(F)F	161
CC(=O)Nc1ccc(F)cc1F	122
CC1=C(C(=O)OCc2ccccc2)C(c2ccccc2)NC(=S)N1 (stereo not drawn)	175
Cc1ccc2cc(CBr)ccc2n1	93 to 94
c1ccc(-c2nnc(NC3=NCCN3CN3CCCCC3)s2)cc1	133 to 134
O=Cc1ccc(-c2cccs2)s1	57 to 58
Nc1ccc(Cl)cc1C(=O)O	209 to 213
CC(=Nn1c(S)nnc1C(F)(F)F)c1ccc(C)cc1	201
CC(O)C1(O)CC2C3CCC4(C)CC(O)CCC4(C)C3CCC2(C)C1 (stereo not drawn)	220 to 221
C1CCC(CCCC2CCCCC2)CC1	-17
O=C(Oc1ccccc1)c1cccc(C(=O)Oc2ccccc2)c1	136 to 139
CC(C)(C)OC(=O)NC(COC1CCCCO1)CS(=O)(=O)c1ccccc1 (stereo not drawn)	100 to 104
O=C(c1ccccc1)c1cccc(C(=O)c2ccccc2)c1	98.5
CCOC(C/N=C/c1cccc(/C=N/CC(OCC)OCC)c1)OCC	61
O=C(O)c1cc([N+](=O)[O-])cc(C(F)(F)F)c1	130
CCCCCCCCOC(=O)CCCCCCC	-18.1
